Reference: patent US8835506B2, “Methods and related compositions for the treatment of cancer” (STC.UNM, priority 2008, dated 2014)
“Also recorded” adds a separate entry of the source.

What was measured:
PC3 cells [1] = test: Hypodiploid population by propidium iodide incorporation and flow cytometry (apoptosis hallmarks); type: cell-based, human
Text: Multiple mechanisms could account for the cell death observed in cancer cells from treatment with AST. […] Thus, administering the agents identified above that induce intracellular granularity in cancer cells may produce cell death through an autophagic mechanism.

LNCaP cells [2] = test: HyperCyt high-throughput flow cytometry, side scatter as endpoint for intracellular granularity; cell death seen as adherent cells becoming non-adherent; type: cell-based, human
Procedure: HyperCyt and High-throughput Data Analysis: The HyperCyt® cytometry analysis system interfaces a flow cytometer and an autosampler. While the sampling probe moves from well to well, a peristaltic pump sequentially aspirates a small volume from each well. A bubble of air, created by the continuously running pump, separates samples from individual wells. Sample and bubble volumes are determined by the time the sampling probe is in a well (sip time) or in taking air while moving from well to well (up time). HyperCyt® sampling of a single 384-well plate is completed in less than 15 minutes. This system has been validated using cell-based high-throughput endpoint assays for ligand binding, surface antigen expression, and immunophenotyping.
The air-bubble separated samples, collected by HyperCyt®, are delivered continuously to the cytometer. The data accumulates as a single, time-resolved file with gaps corresponding to air-bubbles. Both forward and side light scattering properties of treated LNCaP cells were measured using a 488 nm laser. Time-resolved data were analyzed by proprietary software (IDLQuery) set to search for 384 separate data clusters. Data from negative (0.1% DMSO) replicate wells were pooled and used to set gates that define granularity in vehicle-treated LNCaP cells. […] A gate is set reflecting this distinction that is then applied to each data cluster. These values are automatically exported to a Microsoft Excel spreadsheet template that calculates percent side scatter shift in individual treated samples.
(§1) Microscopic and Flow Cytometric Scatter Analysis: Light microscopy images of prostate cancer cells in culture were collected using an Olympus IX70 inverted microscope and a 20× objective. Flow cytometric analysis of forward scatter (FSC) and side scatter (SSC) were preformed using the UNM Shared Flow Cytometry Resource on a Cytomation Mo Flo, an Epics Elite, a Becton Dickinson FACScan, or a Becton Dickinson FACS Calibur.

[3] = tested on: PC3 human prostate cancer cells; test: Light microscopy of intracellular granularity; type: cell-based; conditions: FIG. 3
Text: as §1

[4] = cited from earlier work
[5] = rare cases, patients exceeding recommended doses; cited from earlier work
[6] = tested on: 22Rv1 prostate cancer cells; test: Viability by trypan blue exclusion, astemizole alone or with docetaxel or radiation; type: cell-based, human; design: key to action determined with combination therapy: &: Additive action determined with combination therapy.; #: Synergistic action determined with combination therapy; conditions: for level of cell killing in combination: 24 hours
Procedure: (§2) Cell Viability Assays: Two assays were used to determine cell viability; propidium iodide exclusion with flow cytometry and trypan blue exclusion with hemacytometry. Cells were treated with astemizole at the indicated concentrations for 24 to 96 hours prior to viability analysis. For propidium iodide cell viability determinations, cells were removed from the dishes with 0.05% trypsin. All cell culture medium was collected for the analysis in order to include any cells that may have released from the plate during the incubation period. Propidium iodide was added at a final concentration of 2 μg/ml and cells were analyzed on a Becton Dickinson FACScan flow cytometer. For trypan blue dye exclusion studies, all cell culture medium and cells removed by trypsinization were collected as above. An aliquot of these cells was re-suspended in 0.4% trypan blue. Both viable and non-viable cell counts were obtained by manual counting using a hemacytometer and light microscopy.
Compounds according to the present invention may also function as radiosensitizers in addition to their anticancer activity. A study was performed showing prostate cancer cell killing actions of astemizole in combination with other therapeutic interventions. Astemizole alone produced a decrease in 22Rv1 prostate cancer cell viability with 8 μM 24 hours after treatment. […] This is true of the other agents which are described herein.

[7] = tested on: PC3 androgen-independent human prostate cancer cells; test: Cell death by trypan blue uptake; type: cell-based
Procedure: as §2

[8] = tested on: LNCaP human prostate cancer cells; test: Cytotoxicity of AST in culture; type: cell-based
Procedure: as §2

[9] = tested on: LAPC4 human prostate cancer cells; test: Cell death by trypan blue uptake and hemacytometry; type: cell-based
Procedure: as §2

[10] = tested on: CWRv22 human prostate cancer cells; test: Cell death by trypan blue uptake and hemacytometry; type: cell-based
Procedure: as §2

skin cancer cells (SCC) = test: Cell death by trypan blue uptake and hemacytometry; type: cell-based; conditions: AST up to 15 μM; listed as AST
Procedure: as §2

prostate cancer cells = test: Cell death of human cancer cells cultured with AST; type: cell-based
Procedure: as §2

[11] = in vivo; cited from earlier work
[12] = tested on: LC3 II band in CWRv22 cells; test: LC3 II band induction (autophagy marker); type: cell-based, human; conditions: 10 μM AST, 6 hours
[13] = cited from earlier work; remark: listed apart in the source
LAPC4 cells = test: Cell proliferation assay (CyQUANT NF); type: cell-based, human; conditions: FIG. 7, 4 days
Procedure: (§3) Cell Proliferation Assay: To determine the number of proliferating cells after astemizole treatment, cells were seeded in 96-well tissue culture plates at 5,000 cells per well in 100 uL of DMEM/FCS. Two days after plating, cells were treated with astemizole at the indicated concentrations. Four days after treatment, cell proliferation was determined using the CyQUANT NF Cell Proliferation Assay Kit (Invitrogen, Carlsbad, Calif.) according to the kit instructions.

DU145 cells = test: Cell proliferation assay (CyQUANT NF); type: cell-based, human; conditions: FIG. 7, 4 days
Procedure: as §3

PC3 cells [14] = test: Cell proliferation assay (CyQUANT NF); type: cell-based, human; conditions: over a 4 day period
Procedure: as §3

LNCaP cells [15] = test: Cell proliferation assay (CyQUANT NF); type: cell-based, human; conditions: FIG. 7, 4 days
Procedure: as §3

advanced prostate cancer = advanced prostate cancer patients, on average; cited from earlier work

1-[(4-fluorophenyl)methyl]-N-[1-[2-(4-ethoxyphenyl)ethyl]-4-piperidyl]benzoimidazol-2-amine [Astemizole]
hallmarks of apoptotic cell death (hypodiploid population) (PC3 cells [1]): does not produce hallmarks of apoptotic cell death | cancer cell intracellular granularity by SSC flow cytometry (LNCaP cells [2]; FIG. 2, prostate cancer cells): significantly increase | dose at which cell death is seen (LNCaP cells [2]; FIG. 4 dose-response): 10 µM | dose range of AST-induced increases in intracellular granularity (LNCaP cells [2]; FIG. 4 dose-response): up to 3 μM | intracellular granularity observed by light microscopy [3]: increase in intracellular granularity | absorption ([4]; from the gastrointestinal tract): rapidly absorbed | excretion ([4]; man): excreted as metabolites chiefly in the feces | half-life of the active ingredient ([4]; man): approximately 1 day | metabolism ([4]; man): extensively metabolized | serious life-threatening cardiovascular adverse events [5]: QT-prolongation, torsades de pointes, and other ventricular arrhythmias | action determined with combination therapy ([6]; 2 μM astemizole + 10 nM docetaxel): & | % Viability, Mean (SD) ([6]; 2 μM astemizole + 10 nM docetaxel, 24 h, n = 3): 71.3% | action determined with combination therapy ([6]; 2 μM astemizole + 10 Gy radiation): & | % Viability, Mean (SD) ([6]; 2 μM astemizole + 10 Gy radiation, 24 h, n = 3): 63.5% | % Viability, Mean (SD) ([6]; 2 μM astemizole alone, 24 h, n = 3): 88.2 (4.9) % | action determined with combination therapy ([6]; 4 μM astemizole + 10 nM docetaxel): & | % Viability, Mean (SD) ([6]; 4 μM astemizole + 10 nM docetaxel, 24 h, n = 3): 74.4% | action determined with combination therapy ([6]; 4 μM astemizole + 10 Gy radiation): # | % Viability, Mean (SD) ([6]; 4 μM astemizole + 10 Gy radiation, 24 h, n = 3): 57.4% | % Viability, Mean (SD) ([6]; 4 μM astemizole alone, 24 h, n = 3): 90.6 (1.2) % | action determined with combination therapy ([6]; 8 μM astemizole + 10 nM docetaxel): & | % Viability, Mean (SD) ([6]; 8 μM astemizole + 10 nM docetaxel, 24 h, n = 3): 49.7% | action determined with combination therapy ([6]; 8 μM astemizole + 10 Gy radiation): # | % Viability, Mean (SD) ([6]; 8 μM astemizole + 10 Gy radiation, 24 h, n = 3): 22.2% | % Viability, Mean (SD) ([6]; 8 μM astemizole alone, 24 h, n = 3): 64.3 (8.1) % | cell viability, astemizole alone ([6]; 8 μM, 24 hours after treatment): decrease | level of cell killing in combination ([6]; 2, 4 and 8 μM astemizole with 10 nM docetaxel): additive levels of cell killing | level of cell killing in combination ([6]; 2, 4 and 8 μM astemizole with 10 gray radiation): synergistic levels of cell killing | time to cell death after treatment [7]: ≤ 24 h | cell death ([7]; 10 μM AST, 48 hours): greater than 25% | cells dead ([7]; 15 μM AST, 48 hours): ~100% | cell killing by AST treatment [8]: dose-response to cell killing | cell killing by AST treatment [9]: dose-response to cell killing | cells dead ([9]; 6 μM AST, within 24 hours): 80% | cell killing by AST treatment [10]: dose-response to cell killing | cells dead ([10]; 6 μM AST, within 24 hours): 80% | cell death by AST treatment (skin cancer cells (SCC)): resistant to cell death; also recorded: not killed | concentration at which cells undergo rapid cell death (prostate cancer cells): above 5 μM | crossing of the blood-brain barrier [11]: does not cross the blood-brain barrier | LC3 II band associated with autophagic pathways [12]: induction of an LC3 II band | LC3 II band associated with autophagic pathways ([12]; listed as AST): increase in the LC3 II band | protein binding [13]: around 96% | prostate cancer cell growth (LAPC4 cells): significant reduction | prostate cancer cell growth (DU145 cells): significant reduction | concentration inhibiting cell growth (PC3 cells [14]): ≥ 1 µM | prostate cancer cell growth (LNCaP cells [15]): significant reduction

CC(=O)O[C@@]12CO[C@@H]1C[C@H](O)[C@@]1(C)C(=O)[C@H](O)C3=C(C)[C@@H](OC(=O)[C@H](O)[C@@H](NC(=O)OC(C)(C)C)c4ccccc4)C[C@@](O)([C@@H](OC(=O)c4ccccc4)[C@H]21)C3(C)C [docetaxel]
viability at 0.01 µM ([6]; Homo sapiens, 22Rv1, 10 nM docetaxel alone (0 μM astemizole), 24 h, n = 3, read-out: % Viability, Mean (SD)): 80.7%

CC(=O)O[C@@]12CO[C@@H]1C[C@H](O)[C@@]1(C)C(=O)[C@H](O)C3=C(C)[C@@H](OC(=O)[C@H](O)[C@@H](NC(=O)OC(C)(C)C)c4ccccc4)C[C@@](O)([C@@H](OC(=O)c4ccccc4)[C@H]21)C3(C)C [Taxotere]
prolongation of life (advanced prostate cancer): 2.5 months
